In brackets after ≈: the same amount, converted by molar mass.
How the values were obtained:
SCC-9 cell line [1] = tested on: SCC-9 cell line; set-up: method as in PMID 25450696; conditions: SCC-9 cell line ref 49; cited from earlier work
KB cell line = tested on: KB cell line; set-up: method as in PMID 36278627; conditions: 48 h of treatment ref 53; cited from earlier work
FaDu cell line [2] = tested on: FaDu cell line; set-up: method as in PMID 25767602; conditions: FaDu cell line ref 55; cited from earlier work
Hep-2 cell line [3] = conditions: Hep-2 cell line ref 56; cited from earlier work
Hep-2 cell line [4] = tested on: Hep-2 cell line; set-up: method as in PMID 23513724; conditions: HPV-positive Hep-2 cell line ref 52; cited from earlier work
OSCC cells = tested on: OSCC cells; set-up: method as in PMID 32391111; conditions: Ohnishi et al. ref 57; cited from earlier work
CAL 27 cell line [5] = conditions: cited from earlier work
Detroit 562 cell line = tested on: Detroit 562 cell line; set-up: method as in PMID 32121279, PMID 19317462; conditions: Detroit 562 cell line ref 50, 51; cited from earlier work
HGF = tested on: HGF; set-up: method as in PMID 34657625; conditions: concentration range 0.1–20 μM ref 54; cited from earlier work
CAL 27 cell line [6] = tested on: CAL 27 cell line; set-up: method as in PMID 32060973, PMID 32099333; conditions: CAL 27 cell line ref 46, 47; cited from earlier work
A549 cell line = tested on: A549 cell line; set-up: method as in PMID 32598409; conditions: A549 cell line ref 33; cited from earlier work
[7] = tested on: NF-κB in THP1-Blue NF-κB cells; assay: NF-κB activity assay (SEAP reporter, LPS-induced); format: cell-based; conditions: 20 μM, LPS 10 ng/mL
Experimental: THP1-Blue NF-κB cells, NF-κB secreted embryonic alkaline phosphatase (SEAP) reporter monocytes (InvivoGen, USA), were assayed after 20–24 h of incubation following the manufacturer’s protocol. Briefly, cells were seeded at 1 × 10^6 cells/mL in RPMI medium in 96-well plates (180 μL) and treated with complex 3 or 4, Lipopolysaccharide (LPS) (10 ng/mL; […] The next day, NF-κB activation was assessed via the secretion of SEAP. Supernatants (20 μL) were transferred to 96-well plates, and 180 μL of Quanti-Blue was added. Plates were incubated for 2 h at 37°C, and absorbance was measured at 600 nm using an […] 200 PRO microplate reader (TECAN, Switzerland).

SCC-9 cell line [8] = tested on: SCC-9 cell line; set-up: method as in PMID 32628350, PMID 25450696; conditions: SCC-9 cell line ref 48, 49; cited from earlier work
IKKβ = target: T1, IKKβ (Homo sapiens, UniProt O14920); assay: IKKβ inhibition assay (IKKβ Kinase Assay Kit); format: biochemical; conditions: fivefold higher concentration than 1 μM
T1 construct: purchased BPS Bioscience
T1 sequence (O14920 1-756): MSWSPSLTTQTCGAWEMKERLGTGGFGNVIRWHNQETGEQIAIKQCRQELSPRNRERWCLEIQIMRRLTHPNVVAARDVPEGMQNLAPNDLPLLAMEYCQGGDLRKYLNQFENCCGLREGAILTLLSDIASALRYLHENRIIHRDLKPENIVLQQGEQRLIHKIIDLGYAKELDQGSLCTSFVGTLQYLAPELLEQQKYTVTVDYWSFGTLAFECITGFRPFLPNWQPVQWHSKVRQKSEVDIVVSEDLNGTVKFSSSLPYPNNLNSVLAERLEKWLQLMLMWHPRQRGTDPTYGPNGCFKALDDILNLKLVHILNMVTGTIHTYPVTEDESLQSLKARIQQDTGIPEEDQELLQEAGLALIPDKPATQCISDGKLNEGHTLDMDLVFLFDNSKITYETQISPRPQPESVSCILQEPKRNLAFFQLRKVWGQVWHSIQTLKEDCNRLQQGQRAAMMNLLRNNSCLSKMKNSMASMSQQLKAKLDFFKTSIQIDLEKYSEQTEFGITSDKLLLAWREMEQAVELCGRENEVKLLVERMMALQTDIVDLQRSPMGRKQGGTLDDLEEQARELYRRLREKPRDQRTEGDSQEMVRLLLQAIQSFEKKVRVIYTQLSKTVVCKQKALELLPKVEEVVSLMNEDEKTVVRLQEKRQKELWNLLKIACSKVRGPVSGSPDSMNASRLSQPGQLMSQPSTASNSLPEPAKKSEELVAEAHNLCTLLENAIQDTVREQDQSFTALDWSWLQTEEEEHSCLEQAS
Experimental: IκB kinase beta (IKKβ) inhibition was determined using the IKKβ Kinase Assay Kit (BPS Bioscience, San Diego, California, USA). […] Kinase-Glo® MAX (Promega, #V6071, Madison, Wisconsin, USA) was used as the detection reagent, with an incubation time of 15 min. Blank values were subtracted from all measurements. Luminescence was measured with an integration time of 1 s using a Spark Microplate Reader (Tecan, Switzerland).

THP1-Blue NF-κB cells = assay: MTT viability assay of THP1-Blue NF-κB cells; format: cell-based; conditions: concentrations of the NF-κB activity assay, overnight
Experimental: A total of 20 μL of sterile filtered MTT (Sigma-Aldrich, Merck, Germany) solution (5 mg/mL in PBS) was added to the remaining overnight culture of THP1-Blue NF-κB cells from the above NF-κB activity assay in 96-well plates, which were incubated at 37°C (see above). After 2 h of incubation at 37°C, the supernatant was removed, and the purple formazan product generated in the cells was dissolved by the addition of 100 μL of DMSO to each well. The plates were then gently shaken for 30 s at room temperature to dissolve the precipitates. The absorbance was measured at 570 nm using an […] 200 PRO microplate reader (TECAN, Switzerland) ([43]).

FaDu cell line [9] = tested on: FaDu cell line; set-up: method as in PMID 32628350; conditions: FaDu cell line ref 48; cited from earlier work
CAL 27 cell line [10] = tested on: CAL 27 cell line; set-up: method as in PMID 32099333, PMID 25767602; conditions: CAL 27 cell line ref 47, 55; cited from earlier work

COc1cc(/C=C/C(=O)CC(=O)/C=C/c2ccc(O)c(OC)c2)ccc1O [Curcumin, curcumin]
Concentration suppressing colony formation (SCC-9 cell line [1]): 40 µM
IC50 (KB cell line): 8.84 µg/mL (≈ 24 µM)
Concentration suppressing colony formation (FaDu cell line [2]): 12.5 µM
Concentration with significant inhibition of colony formation and cell migration (Hep-2 cell line [3]): 20 µM
IC50 (Hep-2 cell line [4]): ~50 µM
Concentration inhibiting migration (OSCC cells): 15 µM
Concentration reducing cell migratory capacity (CAL 27 cell line [5]; CAL 27 cell line ref 47, 55): 50 µM
Concentration significantly inhibiting migration (CAL 27 cell line [5]; CAL 27 cells, Ma et al. ref 47): 100 µM
Concentration showing cytotoxicity (Detroit 562 cell line): around 20 μM
Effect on cell viability (HGF): did not significantly affect cell viability
IC50 (CAL 27 cell line [6]): 49.9 µM
IC50 (A549 cell line): 13.1 µM
Reduction of LPS-induced NF-κB activation [7]: approximately 60%
IC50 (SCC-9 cell line [8]): 40.9 µM
Inhibition of IKKβ activity (IKKβ): approximately 30%
Cytotoxicity in THP1-Blue NF-κB cells (MTT) (THP1-Blue NF-κB cells): Neither complex 3, complex 4, nor curcumin exhibited significant cytotoxicity
IC50 (FaDu cell line [9]): 24.8 µM
Concentration inhibiting colony formation (CAL 27 cell line [10]): ≥ 12.5 µM
